Data on four compounds can be found in the NIST ThermoML archive (doi:10.1016/j.fluid.2010.05.010).

A short description of this series: activity coefficient (dimensionless); of the first substance listed, at infinite dilution; xn = mol fraction of the nth substance listed. Conditions: 101 kPa, Liquid, x1 = 0.

Numbers after ± are expanded uncertainties.

`CCOC(=O)OCC` [diethyl carbonate] + O: the activity coefficient by setting is: (273.35 K, Inert gas stripping) 246 ± 1; (283.15 K, Inert gas stripping) 299 ± 1; (293.15 K, Inert gas stripping) 353 ± 1; (298.15 K, Inert gas stripping) 374 ± 1; (303.15 K, Inert gas stripping) 394 ± 1; (313.15 K, Inert gas stripping) 408 ± 1. In addition, the activity coefficient by setting is: (323.15 K, Inert gas stripping) 394 ± 1; (333.15 K, Inert gas stripping) 388 ± 1.

As to `COC(=O)OC` [dimethyl carbonate] + O, the activity coefficient by setting is: (273.35 K, Inert gas stripping) 37.6 ± 0.2; (283.15 K, Inert gas stripping) 43.8 ± 0.1; (293.15 K, Inert gas stripping) 46.3 ± 0.1; (298.15 K, Inert gas stripping) 48 ± 0.1; (303.15 K, Inert gas stripping) 49.3 ± 0.1; (313.15 K, Inert gas stripping) 50 ± 0.1. For the same compound, the activity coefficient (323.15 K, Inert gas stripping) amounted to 50.9 ± 0.1 and the activity coefficient (333.15 K, Inert gas stripping) is 50.3 ± 0.1.

With `C=C(C)C(=O)OC` [methyl methacrylate] + O, the activity coefficient (273.35 K, Inert gas stripping) was found to be 283 ± 1; the activity coefficient (283.15 K, Inert gas stripping) amounted to 321 ± 1; the activity coefficient (293.15 K, Headspace solid-phase microextraction) amounted to 380 ± 1; the activity coefficient (293.15 K, Inert gas stripping) was determined as 366 ± 1; the activity coefficient (298.15 K, Headspace solid-phase microextraction) came to 389 ± 1; the activity coefficient (298.15 K, Inert gas stripping) came out at 380 ± 1. Besides, the activity coefficient was found to be 382 ± 1 (303.15 K, Headspace solid-phase microextraction); 390 ± 1 (303.15 K, Inert gas stripping); 403 ± 1 (313.15 K, Inert gas stripping); 403 ± 1 (323.15 K, Inert gas stripping); 394 ± 1 (333.15 K, Inert gas stripping).

Turning to `C=COC(C)=O` [vinyl acetate] + O, the activity coefficient by setting is: (273.35 K, Inert gas stripping) 150 ± 1; (283.15 K, Inert gas stripping) 161 ± 1; (293.15 K, Inert gas stripping) 177 ± 1; (298.15 K, Inert gas stripping) 181 ± 1; (303.15 K, Inert gas stripping) 187 ± 1; (313.15 K, Inert gas stripping) 190 ± 1. Also, the activity coefficient amounted to 194 ± 1 (323.15 K, Inert gas stripping) and 187 ± 1 (333.15 K, Inert gas stripping).
